Assay results reported in patent US12624018B1, “Inhibitors of RIPK2 and medical uses thereof” (Odyssey Therapeutics, Inc., priority 2022, dated 2026).
Like-named read-outs stand apart in the source and are kept apart here.

Columns and labels:
human NOD2 signaling = test: Inhibition of human NOD2 signaling in HEK-Blue-hNOD2 cells (L18-MDP stimulated, SEAP reporter); type: cell-based; settings: NOD2 ligand stimulation, SEAP reporter, read-out: hNOD2 IC50
Procedure, shortened: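 Read-out is SEAP absorbance at 620 nm after 3 h QUANTI-Blue development of supernatant from HEK293 cells carrying NOD2 and a SEAP reporter (12500/well). Cells got compound (10 points, 3-fold dilutions) and 0.5 ng/mL L18-MDP for 24 h at 37 °C; percent inhibition vs stimulated/unstimulated controls, 4-parameter IC50.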

RIPK2 enzyme = target: T1, RIPK2 enzyme (Homo sapiens, UniProt O43353); test: RIPK2 inhibition (ADP-Glo Kinase Assay); type: biochemical; settings: RIPK2 5 nM, ATP 150 μM, MBP substrate, read-out: RIPK2 IC50
T1 construct: purchased Carna 09-128
Procedure, shortened: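 Swine MBP substrate; compound and 5 nM RIPK2 first mixed for 30 min at room temperature; buffer pH 7.5 HEPES 50 mM with 10 mM MgCl2, 2 mM DTT, 1 mM EGTA, Brij-35, BSA.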

[1] = Homo sapiens, HEK-Blue hNOD2, HEK-Blue-hNOD2 cells

T1 sequence (O43353 1-299 limits assumed): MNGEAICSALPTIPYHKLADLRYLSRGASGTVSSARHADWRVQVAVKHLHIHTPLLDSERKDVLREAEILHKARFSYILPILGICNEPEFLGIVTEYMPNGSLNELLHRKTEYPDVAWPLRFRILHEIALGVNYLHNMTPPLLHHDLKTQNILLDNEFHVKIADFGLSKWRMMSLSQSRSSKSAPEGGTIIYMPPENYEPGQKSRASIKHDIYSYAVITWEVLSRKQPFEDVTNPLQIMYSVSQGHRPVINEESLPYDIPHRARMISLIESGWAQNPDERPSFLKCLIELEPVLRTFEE

Row | IC50 (human NOD2 signaling; [1]) [nM] | IC50 (RIPK2 enzyme) [nM] | IC50 (human NOD2 signaling; HEK-Blue-hNOD2 cells) [nM] | SMILES
1 | 0.1 | < 2.5 |  | [2H]C([2H])([2H])NC(=O)c1ccc2nccc(Oc3ccc(CC(=O)Nc4cnn(C(C)(C)C)c4)cc3C)c2c1 [Compound 491, 4-(4-(2-((1-(tert-butyl)-1H-pyrazol-4-yl)amino)-2-oxoethyl)-2-methylphenoxy)-N-(methyl-d3)quinoline-6-carboxamide]
2 | 0.7 | < 2.5 |  | COc1cc2nccc(Oc3ccc(CC(=O)Nc4cnn(C(C)(C)C)c4)cc3C(F)F)c2cc1C(N)=O [Compound 578, 4-(4-(2-((1-(tert-butyl)-1H-pyrazol-4-yl)amino)-2-oxoethyl)-2-(difluoromethyl)phenoxy)-7-methoxy-quinoline-6-carboxamide]
3 | 0.8 | 3.8 |  | Cc1c(Oc2ccnc3ccc(C4(C(N)=O)CCC4)cc23)cc(F)c(CC(=O)Nc2cnn(C(C)(C)C)c2)c1F [Compound 606, 1-(4-(4-(2-((1-(tert-butyl)-1H-pyrazol-4-yl)amino)-2-oxoethyl)-3,5-difluoro-2-methylphenoxy)quinolin-6-yl)cyclobutane-1-carboxamide]
4 | 10.4 | < 2.5 |  | CC(C)(C)n1cc(NC(=O)Cc2cc(Cl)c(Oc3ccnc4ccc(S(=N)(=O)C5CC5)cc34)cc2F)cn1 (single isomer, unassigned) [Compound 533, N-(1-(tert-butyl)-1H-pyrazol-4-yl)-2-(5-chloro-4-((6-(cyclopropanesul-fonimidoyl)quinolin-4-yl)oxy)-2-fluorophenyl) acetamide]
5 |  | < 2.5 | 4.9 | Cc1cc(CC(=O)Nc2cnn(C(C)(C)C)c2)ccc1Oc1ccnc2cc(F)c(S(=N)(=O)C3CC3)cc12 (single isomer, unassigned) [Compound 554, N-(1-(tert-butyl)-1H-pyrazol-4-yl)-2-(4-((6-(cyclopropane-sulfonimidoyl)-7-fluoroquinolin-4-yl)oxy)-3-methylphenyl) acetamide]
6 | 0.8 | < 2.5 |  | COc1n[nH]cc1-c1ccc2nccc(Oc3cc(F)c(CC(=O)Nc4cnn(C(C)(C)C)c4)cc3C)c2c1 [Compound 480, N-(1-(tert-butyl)-1H-pyrazol-4-yl)-2-(2-fluoro-4-((6-(3-methoxy-1H-pyrazol-4-yl)quinolin-4-yl)oxy)-5-methylphenyl)acetamide]
7 | 31.2 | < 2.5 |  | Cc1cc(CC(=O)Nc2cnn(C34CC(C3)C4)c2)cc(Cl)c1Oc1ccnc2ccc(C(N)=O)cc12 [Compound 590, 4-(4-(2-((1-(bicyclo[1.1.1]pentan-1-yl)-1H-pyrazol-4-yl)amino)-2-oxoethyl)-2-chloro-6-methylphenoxy)quinoline-6-carboxamide]
8 |  | < 2.5 | 0.7 | Cc1c(Oc2ccnc3ccc(S(=N)(=O)C4CC4)cc23)ccc(CC(=O)Nc2cnn(C34CC(C3)C4)c2)c1F (single isomer, unassigned) [Compound 527]
9 | 1.3 | < 2.5 |  | [2H]C([2H])([2H])C(n1cc(NC(=O)Cc2ccc(Oc3ccnc4ccc(S(C)(=O)=O)cc34)c(C)c2)cn1)(C([2H])([2H])[2H])C([2H])([2H])[2H] [Compound 597, 2-(3-methyl-4-((6-(methylsulfonyl)quinolin-4-yl)oxy)phenyl)-N-(1-(2-(methyl-d3)propan-2-yl-1,1,1,3,3,3-d6)-1H-pyrazol-4-yl)acetamide]
10 | 1.7 | < 2.5 |  | CNC(=O)c1cc2c(Oc3c(C)cc(CC(=O)Nc4cnn(C(C)(C)C)c4)cc3F)ccnc2cc1F [Compound 599, 4-(4-(2-((1-(tert-butyl)-1H-pyrazol-4-yl)amino)-2-oxoethyl)-2-fluoro-6-methylphenoxy)-7-fluoro-N-methylquinoline-6-carboxamide]
11 |  | < 2.5 | 1.2 | Cc1c(Oc2ccnc3ccc(S(=N)(=O)C(C)(C)C)cc23)ccc(CC(=O)Nc2cnn(C(C)(C)C)c2)c1F (single isomer, unassigned) [Compound 539, N-(1-(tert-butyl)-1H-pyrazol-4-yl)-2-(2-fluoro-3-methyl-4-((6-(2-methylpropan-2-ylsulfonimidoyl)quinolin-4-yl)oxy)phenyl) acetamide]
12 | 1.5 | < 2.5 |  | Cc1cc(CC(=O)Nc2cnn(C(C)(C)C)c2)c(F)cc1Oc1ccnc2ccc(C(=O)NC3(C)COC3)cc12 [Compound 514, 4-(4-(2-((1-(tert-butyl)-1H-pyrazol-4-yl)amino)-2-oxoethyl)-5-fluoro-2-methylphenoxy)-N-(3-methyloxetan-3-yl)quinoline-6-carboxamide]
13 |  | < 2.5 | 0.7 | CCS(=N)(=O)c1ccc2nccc(Oc3ccc(CC(=O)Nc4cnn(C(C)(C)C)c4)c(F)c3C)c2c1 (single isomer, unassigned) [Compound 536, N-(1-(tert-butyl)-1H-pyrazol-4-yl)-2-(4-((6-(ethylsulfonimi-doyl)quinolin-4-yl)oxy)-2-fluoro-3-methylphenyl) acetamide]
14 | 6.9 | < 2.5 |  | CNC(=O)c1cc2c(Oc3cc(F)c(CC(=O)Nc4cnn(C(C)(C)C)c4)cc3C)ccnc2cc1Cl [Compound 565, 4-(4-(2-((1-(tert-butyl)-1H-pyrazol-4-yl)amino)-2-oxoethyl)-5-fluoro-2-methylphenoxy)-7-chloro-N-methylquinoline-6-carboxamide]
15 | 26 | < 2.5 |  | Cc1cc(CC(=O)Nc2cnn(C(C)(C)C)c2)c(F)cc1Oc1ccnc2ccc(-c3c[nH]nc3O)cc12 [Compound 478, N-(1-(tert-butyl)-1H-pyrazol-4-yl)-2-(2-fluoro-4-((6-(3-hydroxy-1H-pyrazol-4-yl)quinolin-4-yl)oxy)-5-methylphenyl)acetamide]
16 | 2.2 | < 2.5 |  | CC(C)(C)n1cc(NC(=O)Cc2ccc(Oc3ccnc4cc(F)c(C(N)=O)cc34)c(C(F)F)c2)cn1 [Compound 575, 4-(4-(2-((1-(tert-butyl)-1H-pyrazol-4-yl)amino)-2-oxoethyl)-2-(difluoromethyl)phenoxy)-7-fluoroquinoline-6-carboxamide]
17 | 16.1 | < 2.5 |  | Cc1cc(CC(=O)Nc2cnn(C(C)(C)C)c2)c(F)cc1Oc1ccnc2ccc(-c3c(C)ncnc3C)cc12 [Compound 526, N-(1-(tert-butyl)-1H-pyrazol-4-yl)-2-(4-((6-(4,6-dimethylpyrimidin-5-yl)quinolin-4-yl)oxy)-2-fluoro-5-methylphenyl)acetamide]
18 |  | < 2.5 | 11 | Cc1cc(CC(=O)Nc2cnn(C(C)(C)C)c2)ccc1Oc1ccnc2ccc(S(=N)(=O)C(C)(C)C)cc12 (single isomer, unassigned) [Compound 550, N-(1-(tert-butyl)-1H-pyrazol-4-yl)-2-(3-methyl-4-((6-(2-methylpropan-2-ylsulfonimidoyl)quinolin-4-yl)oxy)phenyl) acetamide]
19 | 28.6 | < 2.5 |  | Cc1cc(CC(=O)Nc2cnn(C34CC(C3)C4)c2)cc(C)c1Oc1ccnc2ccc(C(N)=O)cc12 [Compound 587, 4-(4-(2-((1-(bicyclo[1.1.1]pentan-1-yl)-1H-pyrazol-4-yl)amino)-2-oxoethyl)-2,6-dimethylphenoxy)quinoline-6-carboxamide]
20 | 0.8 | < 2.5 |  | CCS(=N)(=O)c1ccc2nccc(Oc3ccc(CC(=O)Nc4cnn(C(C)(C)C)c4)c(F)c3C)c2c1 (single isomer, unassigned) [Compound 535, N-(1-(tert-butyl)-1H-pyrazol-4-yl)-2-(4-((6-(ethylsulfonimidoyl)quinolin-4-yl)oxy)-2-fluoro-3-methylphenyl) acetamide]
